US7553867B2, “Furan or thiophene derivative and medicinal use thereof” (Takeda Pharmaceutical Company Limited, priority 2002, dated 2009)

Tests used:
[1] = biological target: T1, PPARγ-RXRα heterodimer (Homo sapiens, UniProt P37231); assay: PPARγ-RXRα heterodimer ligand activity (luciferase reporter, PPARγ:RXRα:4ERPP/CHO-K1 cells); type: cell-based; conditions: luciferase activity at 100 nM test compound relative to non-administration group as 1
T1 construct: expressed in transfected cells
T1 sequence (P37231 1-477 isoform P37231-2): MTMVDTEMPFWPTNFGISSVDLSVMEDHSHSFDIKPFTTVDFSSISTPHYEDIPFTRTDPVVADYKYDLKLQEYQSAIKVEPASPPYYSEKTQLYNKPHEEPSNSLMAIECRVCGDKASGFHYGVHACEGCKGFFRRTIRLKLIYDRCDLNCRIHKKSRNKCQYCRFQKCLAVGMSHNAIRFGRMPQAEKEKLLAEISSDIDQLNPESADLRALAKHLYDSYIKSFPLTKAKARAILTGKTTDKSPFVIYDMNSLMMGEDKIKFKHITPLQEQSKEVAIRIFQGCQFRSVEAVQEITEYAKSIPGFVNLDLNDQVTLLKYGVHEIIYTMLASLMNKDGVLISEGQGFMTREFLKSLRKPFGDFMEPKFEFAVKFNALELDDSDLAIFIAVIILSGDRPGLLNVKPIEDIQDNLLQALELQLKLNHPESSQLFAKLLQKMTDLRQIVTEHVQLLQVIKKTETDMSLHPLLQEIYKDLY
T1 sequence (P19793 1-462 partner): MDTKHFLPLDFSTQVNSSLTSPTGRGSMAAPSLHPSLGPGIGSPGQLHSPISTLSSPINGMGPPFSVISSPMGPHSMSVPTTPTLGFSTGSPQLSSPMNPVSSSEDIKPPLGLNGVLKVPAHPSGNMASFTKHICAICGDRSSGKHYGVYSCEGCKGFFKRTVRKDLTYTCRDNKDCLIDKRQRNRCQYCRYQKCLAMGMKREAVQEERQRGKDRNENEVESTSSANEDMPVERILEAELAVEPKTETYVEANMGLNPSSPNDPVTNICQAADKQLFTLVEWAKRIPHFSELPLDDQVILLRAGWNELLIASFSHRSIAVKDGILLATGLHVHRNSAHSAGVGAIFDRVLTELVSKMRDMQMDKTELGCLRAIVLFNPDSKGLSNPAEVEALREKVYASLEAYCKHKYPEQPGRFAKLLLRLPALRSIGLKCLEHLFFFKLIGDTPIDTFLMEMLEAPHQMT
Method: The PPARγ:RXRα:4ERPP/CHO-K1 cells obtained in Reference Example 8a were cultured in Ham's F12 medium [produced by Life Technologies, Inc., USA] containing 10% fetal bovine serum [produced by Life Technologies, Inc., USA] and inoculated to a 96-well white plate [produced by Corning Coster Corporation, USA] at 2×10^4 cells/well and cultured overnight at 37° C. in a carbon dioxide gas incubator.
After removal of the medium from the 96-well white plate which had been cultured overnight, Ham's F12 medium containing 80 μl of 0.1% fatty acid-free bovine serum albumin (BSA) and 20 μl of a test compound were added, and the plate was incubated at 37° C. in a carbon dioxide gas incubator for 18 to 24 hours. After removal of the medium, 40 μl of PicaGene 7.5 (produced by Waco Pure Chemicals Industries, Ltd.) diluted twofold with HBSS (HANKS' BALANCED SALT SOLUTION) (produced by BIO WHITTAKER) was added, and after stirring, the luciferase activity was determined using 1420 ARVO Multilabel Counter [produced by Wallac].
A fold induction was calculated from the luciferase activity for addition of each 100 nM of the test compound relative to the luciferase activity of the test compound non-administration group as 1. Results are shown in [Table 1]. […]

fold induction at 0.1 µM [1]	melting point	Compound
2.8	94 to 96 °C	CCCCCCCN(C(=O)c1cc(-c2ccc(F)cc2)oc1C)c1cccc(CSCC(=O)O)c1 [Example 1(3), [(3{[5-(4-Fluorophenyl)-2-methyl-3-furoyl](heptyl)amino}benzyl)thio]acetic acid]
2.3	–	Cc1oc(C2CCCCC2)c(COc2cccc(CSCC(=O)O)c2)c1-c1ccc(F)cc1 [Example 5(2), [(3-{[2-Dichlorohexyl-4-(4-fluorophenyl)-5-methyl-3-furyl]methoxy}benzyl)thio]acetic acid]
